Tests used:
[1] = target: human A2a adenosine receptor (Homo sapiens (Human), UniProt P29274); assay: A2a receptor affinity radioligand binding assay ([3H] SCH58261, membranes from HEK293 or CHO cells); settings: unstarred values: radioligand binding
Method in brief: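 Displacement of tritiated SCH58261 (working dilution 4 nM) from recombinant human A2a receptor membranes (HEK293 or CHO), 60 min at room temperature in Tris pH 7.4/MgCl2 buffer after 15–30 min compound preincubation. Scintillation counting after filtration; normalized percent effect fitted 4-parameter logistic for IC50.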

[2] = target: human A2b adenosine receptor (Homo sapiens (Human), UniProt P29275); assay: A2b radioligand filtration binding assay (tritiated proprietary A2b antagonist, HEK293 membranes); settings: for IC50: unstarred values: radioligand binding
Sequence of human A2b adenosine receptor (P29275 whole entry): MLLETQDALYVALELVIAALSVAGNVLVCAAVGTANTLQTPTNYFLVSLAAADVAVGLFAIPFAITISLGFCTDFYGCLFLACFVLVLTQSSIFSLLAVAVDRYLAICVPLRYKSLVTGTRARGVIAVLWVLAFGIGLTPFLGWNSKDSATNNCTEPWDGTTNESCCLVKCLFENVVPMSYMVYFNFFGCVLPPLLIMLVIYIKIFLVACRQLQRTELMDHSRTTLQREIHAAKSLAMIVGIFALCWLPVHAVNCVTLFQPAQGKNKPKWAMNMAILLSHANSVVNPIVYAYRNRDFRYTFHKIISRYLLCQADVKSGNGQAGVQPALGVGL
Method in brief: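 Displacement of a tritiated proprietary A2b antagonist from membranes of HEK293 cells recombinantly expressing human A2b receptor, measured by filtration and scintillation counting. Percent effect was normalized to total and non-specific binding and fitted with a 4-parameter logistic to give IC50.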

Sequence of human A2a adenosine receptor (P29274 whole entry): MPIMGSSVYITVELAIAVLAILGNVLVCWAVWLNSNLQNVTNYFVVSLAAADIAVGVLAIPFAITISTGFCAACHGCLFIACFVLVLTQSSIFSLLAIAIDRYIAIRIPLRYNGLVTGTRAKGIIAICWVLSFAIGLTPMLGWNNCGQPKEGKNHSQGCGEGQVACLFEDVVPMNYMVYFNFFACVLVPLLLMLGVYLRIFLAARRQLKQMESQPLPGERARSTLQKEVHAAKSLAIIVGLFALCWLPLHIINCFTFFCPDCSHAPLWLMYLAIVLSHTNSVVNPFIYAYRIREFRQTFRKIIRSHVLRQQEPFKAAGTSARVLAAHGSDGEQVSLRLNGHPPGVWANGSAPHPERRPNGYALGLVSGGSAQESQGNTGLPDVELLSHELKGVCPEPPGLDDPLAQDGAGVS

Row | Structure (SMILES) | IC50 [1] | IC50 [2] | A2B binding % inh. @ 10000 nM ([2]; @ 10000 nM, unstarred)
1 | COc1ccc2c(c1)nc(N)n1nc([C@@H]3CCCN(c4cnn([C@H]5C[C@@](C)(O)C5)c4)C3)nc21 [Example 182, (1S,3s)-3-(4-((R)-3-(5-amino-8-methoxy-[1,2,4]-triazolo[1,5-c]quinazolin-2-yl)piperidin-1-yl)-1H-pyrazol-1-yl)-1-methylcyclobutan-1-ol] | 1.3 nM | 188 nM | 
2 | COc1cccc2c1nc(N)n1nc(C3CC(F)CN(c4cnn(CC(C)(C)O)c4)C3)nc21 (stereo not drawn) [Example 149] | 200 nM |  | 32% inh. @ 10000 nM
3 | COc1cccc2c1nc(N)n1nc([C@@H]3CCCN(c4cnn(C5(C)CC5)c4)C3)nc21 [Example 20, (R)-7-methoxy-2-(1-(1-(1-methylcyclopropyl)-1H-pyrazol-4-yl)piperidin-3-yl)-[1,2,4]triazolo[1,5-c]quinazolin-5-amine] | 0.5 nM | 45.1 nM | 
4 | C[C@H]1CC[C@@H](c2nc3c4ccc(C(F)F)cc4nc(N)n3n2)CN1c1cnn(CC(C)(C)O)c1 [Example 201, 1-(4-((2S,5R)-5-(5-amino-8-(difluoromethyl)-[1,2,4]triazolo[1,5-c]quinazolin-2-yl)-2-methylpiperidin-1-yl)-1H-pyrazol-1-yl)-2-methylpropan-2-ol] | 2.8 nM | 10.6 nM | 
5 | COc1cccc2c1nc(N)n1nc([C@@H]3CCCN(c4cn(C)nn4)C3)nc21 [Example 67, (R)-7-methoxy-2-(1-(1-methyl-1H-1,2,3-triazol-4-yl)piperidin-3-yl)-[1,2,4]triazolo[1,5-c]quinazolin-5-amine] | 1 nM | 2 nM | 
6 | COc1ccc2c(c1)nc(N)n1nc([C@@H]3CCCN(c4cnn(CC(C)(C)O)c4)C3)nc21 [Example 179, (R)-1-(4-(3-(5-amino-8-methoxy-[1,2,4]triazolo[1,5-c]quinazolin-2-yl)piperidin-1-yl)-1H-pyrazol-1-yl)-2-methylpropan-2-ol] | 3.5 nM | 103 nM | 
7 | COc1ccc2c(c1)nc(N)n1nc([C@@H]3CCCN(c4cnn(C(C)(C)CO)c4)C3)nc21 [Example 188, (R)-2-(4-(3-(5-amino-8-methoxy[1,2,4]triazolo[1,5-c]quinazolin-2-yl)piperidin-1-yl)-1H-pyrazol-1-yl)-2-methylpropan-1-ol] | 0.7 nM | 44.6 nM | 
8 | COc1cccc2c1nc(N)n1nc([C@@H]3CCCN(c4cn(CC(F)(F)F)nn4)C3)nc21 [Example 73, (R)-7-methoxy-2-(1-(1-(2,2,2-trifluoroethyl)-1H-1,2,3-triazol-4-yl)piperidin-3-yl)-[1,2,4]triazolo[1,5-c]quinazolin-5-amine] | 0.8 nM | 1.9 nM | 
9 | COc1ccc2c(c1)nc(N)n1nc([C@@H]3CCCN(c4ccc(OC(C)C)nc4)C3)nc21 [Example 192, (R)-2-(1-(6-isopropoxypyridin-3-yl)piperidin-3-yl)-8-methoxy-[1,2,4]triazolo[1,5-c]quinazolin-5-amine] | 2.5 nM | 22.7 nM | 

Now from value to compound, other results behind:

Row | IC50 [1] | IC50 [2] | Structure (SMILES) | A2B binding % inh. @ 10000 nM ([2]; @ 10000 nM, unstarred)
10 | 0.4 nM | 526 nM | COc1cccc2c1nc(N)n1nc(C3CN(c4cn(CC(C)(C)O)nc4C)CC(F)(F)C3)nc21 (single isomer, unassigned) [Example 158B, (R or S)1-(4-(5-(5-amino-7-methoxy-[1,2,4]triazolo[1,5-c]quinazolin-2-yl)-3,3-difluoropiperidin-1-yl)-3-methyl-1H-pyrazol-1-yl)-2-methylpropan-2-ol] | 
11 | 1.2 nM | 57.2 nM | COc1cccc2c1nc(N)n1nc([C@H]3CC[C@H](C)N(c4cn(CC(C)(C)O)nc4C)C3)nc21 [Example 145B] | 
12 | 0.5 nM | 3.4 nM | COc1ccc2c(c1)nc(N)n1nc([C@@H]3CC[C@H](C)N(c4cnn([C@@H](C)C(C)(C)O)c4)C3)nc21 [Example 211A, (S)-3-(4-((2S,5R)-5-(5-amino-8-methoxy-[1,2,4]triazolo[1,5-c]quinazolin-2-yl)-2-methylpiperidin-1-yl)-1H-pyrazol-1-yl)-2-methylbutan-2-ol] | 

Source: patent US12263171B2, “7-, 8-, and 10-substituted amino triazolo quinazoline derivatives as adenosine receptor antagonists, pharmaceutical compositions and their use” (Merck Sharp & Dohme LLC, priority 2018, dated 2025)
